No end group written: not given here. *: point of attachment. Biotin = O=C1N[C@H]2[C@H](CS[C@H]2CCCCC(=O)*)N1
T1: KLHDC2 (Homo sapiens, UniProt Q9Y2U9)
T1 construct: human KLHDC2 (UniProt: Q9Y2U9, amino acid 1–362); made in house; host or cells: HighFive insect cells (baculovirus, pFastBac)
T1 sequence (Q9Y2U9 1-362): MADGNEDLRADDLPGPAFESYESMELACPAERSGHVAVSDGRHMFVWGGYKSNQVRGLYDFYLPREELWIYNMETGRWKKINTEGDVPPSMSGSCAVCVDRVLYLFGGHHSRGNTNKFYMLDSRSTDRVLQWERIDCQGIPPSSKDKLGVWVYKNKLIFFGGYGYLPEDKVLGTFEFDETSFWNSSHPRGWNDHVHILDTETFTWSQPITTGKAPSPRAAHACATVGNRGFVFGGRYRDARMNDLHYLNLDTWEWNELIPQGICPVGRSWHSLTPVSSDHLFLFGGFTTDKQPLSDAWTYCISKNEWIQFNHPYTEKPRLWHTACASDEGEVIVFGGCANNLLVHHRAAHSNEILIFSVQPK

T2: GST-tagged kelch repeat domain of human KLHDC2 (amino acid 1-362) (human, UniProt Q9Y2U9 1-362)
T2 construct: kelch repeat domain of human KLHDC2, UniProt Q9Y2U9, amino acids 1-362; A TEV cleavage site lies between GST and KLHDC2; GST was not cleaved for the AlphaLISA and BLI assays; The crystallised construct (22-362, His-TSF cleaved, from E. coli) was used only with the small molecule C29; also called GST-KLHDC2; GST-tagged KLHDC2; source: HighFive insect cells (baculovirus), purified (glutathione …)
T2 sequence (looked up): T1 sequence (Q9Y2U9 1-362)

B1: N-terminal biotinylated 12 aa SelK degron peptide (peptide)
peptide: Biotin-HLRGSPPPMAGG
notes: diglycine-containing C-end degron of SelK (selenoprotein K), 12 aa; the C-terminal mark is cut off in print; also called SelK C-end degron peptide; biotinylated 12 aa SelK peptide; source: synthetic peptide (Bio-Synthesis, Inc.)

Experiments:
hNaV1.7 channel = molecular target: T3, hNaV1.7 channel (Homo sapiens, UniProt Q15858); experiment: Whole-cell patch-clamp electrophysiology on hNaV1.7 stably expressed in HEK-293 cells; type: cell-based; settings: NaV1.7 inactivated state, -70 mV holding potential; mean; read-out: inactivated-state IC50
T3 construct: expressed in transfected cells
T3 sequence (Q15858 whole entry): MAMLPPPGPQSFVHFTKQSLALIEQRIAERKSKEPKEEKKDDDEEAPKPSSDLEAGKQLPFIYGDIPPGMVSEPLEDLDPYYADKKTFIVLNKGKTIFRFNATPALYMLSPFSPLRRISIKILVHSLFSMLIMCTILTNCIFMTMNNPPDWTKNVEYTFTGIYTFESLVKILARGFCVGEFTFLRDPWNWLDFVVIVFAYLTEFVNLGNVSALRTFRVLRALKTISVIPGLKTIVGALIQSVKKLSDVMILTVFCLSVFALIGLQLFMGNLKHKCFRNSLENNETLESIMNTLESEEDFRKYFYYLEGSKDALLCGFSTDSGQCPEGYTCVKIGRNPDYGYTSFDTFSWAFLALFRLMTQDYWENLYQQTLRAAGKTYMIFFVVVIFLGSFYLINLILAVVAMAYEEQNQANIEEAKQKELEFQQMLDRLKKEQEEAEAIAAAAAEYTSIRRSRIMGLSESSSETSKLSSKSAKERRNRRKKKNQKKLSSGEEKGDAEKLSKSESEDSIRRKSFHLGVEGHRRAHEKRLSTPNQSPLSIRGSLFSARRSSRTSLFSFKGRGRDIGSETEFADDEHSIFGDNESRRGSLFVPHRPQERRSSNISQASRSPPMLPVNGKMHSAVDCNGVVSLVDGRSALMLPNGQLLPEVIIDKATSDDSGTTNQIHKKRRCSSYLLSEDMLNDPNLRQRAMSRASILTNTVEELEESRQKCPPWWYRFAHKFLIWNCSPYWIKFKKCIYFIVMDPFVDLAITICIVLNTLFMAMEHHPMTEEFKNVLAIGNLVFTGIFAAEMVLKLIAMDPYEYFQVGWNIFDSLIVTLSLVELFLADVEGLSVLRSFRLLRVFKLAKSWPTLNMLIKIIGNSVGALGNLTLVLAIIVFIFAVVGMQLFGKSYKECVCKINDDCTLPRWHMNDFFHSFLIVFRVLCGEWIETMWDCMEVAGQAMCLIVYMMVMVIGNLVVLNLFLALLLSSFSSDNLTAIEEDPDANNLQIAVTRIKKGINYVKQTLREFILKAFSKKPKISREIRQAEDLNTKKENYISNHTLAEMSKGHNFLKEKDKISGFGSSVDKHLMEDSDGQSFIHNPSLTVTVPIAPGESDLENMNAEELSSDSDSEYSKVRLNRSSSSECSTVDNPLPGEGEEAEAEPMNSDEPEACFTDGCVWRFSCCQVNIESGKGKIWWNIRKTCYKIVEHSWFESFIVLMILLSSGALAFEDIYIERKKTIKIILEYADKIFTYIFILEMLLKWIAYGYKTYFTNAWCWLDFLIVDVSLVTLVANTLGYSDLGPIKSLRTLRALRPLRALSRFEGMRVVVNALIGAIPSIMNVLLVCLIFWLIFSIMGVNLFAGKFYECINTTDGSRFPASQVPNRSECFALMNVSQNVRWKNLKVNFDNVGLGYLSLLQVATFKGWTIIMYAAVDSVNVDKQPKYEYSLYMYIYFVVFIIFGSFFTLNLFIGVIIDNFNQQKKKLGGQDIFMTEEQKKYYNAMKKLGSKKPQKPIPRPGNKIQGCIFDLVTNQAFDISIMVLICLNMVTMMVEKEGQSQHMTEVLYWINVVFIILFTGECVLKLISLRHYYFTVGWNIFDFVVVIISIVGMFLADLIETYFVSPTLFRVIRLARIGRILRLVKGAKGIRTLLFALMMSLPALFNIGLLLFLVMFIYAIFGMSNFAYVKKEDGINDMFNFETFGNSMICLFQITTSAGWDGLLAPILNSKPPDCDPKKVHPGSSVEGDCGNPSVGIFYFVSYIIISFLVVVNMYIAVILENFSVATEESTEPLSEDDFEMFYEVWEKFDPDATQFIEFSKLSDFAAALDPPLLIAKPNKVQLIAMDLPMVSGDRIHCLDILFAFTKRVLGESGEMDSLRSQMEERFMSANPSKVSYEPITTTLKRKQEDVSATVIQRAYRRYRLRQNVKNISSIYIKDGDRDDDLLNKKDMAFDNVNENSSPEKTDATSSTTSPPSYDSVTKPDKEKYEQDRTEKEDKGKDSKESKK
Text: We first clustered the top 100,000 ranked small molecules, then applied filters on the top 1000 cluster representative molecules. A total of 160 molecules that passed the clustering and filtering were examined manually. To ensure the chemical novelty of our selection, we specifically excluded molecules that contain the known arylsulfonamide warhead or structurally resemble antihistamines or beta-receptor blockers. Finally, ten molecules with Tanimoto similarities of less than 0.33 to the known inhibitors of NaV1.7 from the ChEMBL database[43],[44] were selected for synthesis. Of these, nine were successfully synthesized (Supplementary Fig. 16), and their activities were measured using the whole-cell patch-clamp electrophysiology assay on hNaV1.7 channel stably expressed in HEK-293 cells as described in Methods.
HEK-293 cells stably expressing human NaV1.5 and NaV1.7 were obtained from Dr. Chris Lossin (UC Davis, CA). HEK293 cells stably expressing HERG (hKv11.1) were a gift from Craig January (University of Wisconsin, Madison). Cells were cultured in complete DMEM supplemented with 10% FBS, 1% penicillin/streptomycin, and G418. All manual whole-cell patch-clamp recordings were performed at room temperature (22–24 °C) using an EPC-10 amplifier (HEKA Electronik, Lambrecht/Pfalz, Germany) on cells that were grown to 60–80% confluency, lifted with TrypLE, and plated onto poly-l-lysine–coated coverslips. External bath solution contains (in mM) 160 NaCl, 4.5 KCl, 2 CaCl2, 1 MgCl2, 10 HEPES (pH 7.4 and 305 mOsm) as. Patch pipettes were heat-pulled from soda lime glass (micro-hematocrit tubes, Kimble Chase, Rochester, NY) and had resistances of 2–3 MΩ when filled with an internal solution. Patch recordings of NaV1.5 and NaV1.7 channels were done using a cesium fluoride-based internal solution containing (in mM) 10 NaF, 110 CsF, 20 CsCl, 10 HEPES, 2 EGTA, (pH 7.4, 310 mOsm). Recordings of HERG channels were conducted using a potassium fluoride-based internal solution with added ATP (160 mM KF, 2 mM MgCl2, 10 mM EGTA, 10 mM HEPES, 4 mM NaATP, pH = 7.2 and 300–320 mOsm). Data acquisition and analysis were performed with Pulse-PulseFit (HEKA Electronik GmbH, Germany), IgorPro (WaveMetrics, Portland, OR), and Origin 9.0 software (OriginLab Corporation, Northampton, MA). To investigate specifically the inactivated state block of NaV1.7 and NaV1.5, holding potentials were set at the V1/2 of maximal inactivation (− 70 mV and − 80 mV, respectively) before voltage stepping to − 150 mV for 20 msec, and then 0 mV for 50 msec to elicit inward currents. Inhibition of currents in the resting state was recorded using a holding potential of − 120 mV. Control test currents were monitored for up to 5–10 min to ensure that the amplitude and kinetics of the response were stable. Series resistance was compensated to 80–90% and linear leak currents and capacitance artifacts were corrected using a P/4 subtraction method. The pulse interval was 0.1 Hz. For all experiments, stock solutions of the drugs were prepared fresh from 10 mM stocks in DMSO and test solutions prepared in external bath solutions were applied to individual cells into the recording bath. […] The percent reduction of HERG tail current amplitude by the compounds was determined. The percent of a block of tail current amplitude by the drugs was determined and data are shown as mean +/− SD (n = 3–4 per data point).

KLHDC2 = molecular target: T1, KLHDC2; experiment: AlphaLISA competition assay (displacement of SelK C-end degron peptide from GST-KLHDC2); type: binding; settings: IC50, competition with biotinylated 12 aa SelK degron peptide; 12-point titration, n = 3 technical replicates
Text: We took the top-ranked 1000 compounds and filtered out compounds with low predicted solubility, unsatisfied hydrogen bonds in the bound conformation, and followed by similarity clustering to reduce the redundancy in ligand structures. A total of 54 molecules that passed the filtering and clustering were manually examined for favorable interactions and geometries in PyMol[34]. Finally, 37 compounds were chosen for chemical synthesis. Out of these, 29 compounds were successfully synthesized (Supplementary Fig. 13) and characterized in an AlphaLISA competition assay, in which each compound was tested for its ability to compete with a diglycine-containing SelK C-end degron peptide for binding KLHDC2. […] This single digit μM IC50 was further confirmed in a competition assay using BioLayer Interferometry (Supplementary Fig. 14).
The kelch repeat domain of human KLHDC2 (UniProt: Q9Y2U9, amino acid 1–362) was subcloned into the pFastBac vector with an N-terminally fused glutathione-S-transferase (GST), and a TEV-cleavage site. A recombinant baculovirus was produced and amplified three times in Sf9 monolayer cells to produce P4. The P4 virus was used to infect HighFive suspension insect cell cultures to produce the recombinant GST-KLHDC2 protein. The cells were harvested 2–3 days post-infection, re-suspended, and lysed in lysis buffer (20 mM Tris, pH 8.0, 200 mM NaCl, 5 mM DTT) in the presence of protease inhibitors (1 μg/ml Leupeptin, 1 μg/ml Pepstatin and 100 μM PMSF) using a microfluidizer. The GST-KLHDC2 protein was isolated from the soluble cell lysate by PierceTM Glutathione Agarose (Thermo Scientific). For AlphaLISA competition assays, the GST-tagged KLHDC2 was further purified by Q Sepharose High-Performance resin (GE Healthcare). The NaCl eluates were subjected to a Superdex-200 size exclusion chromatography column (GE Healthcare). All samples were flash-frozen in liquid nitrogen for storage prior to use. For protein crystallization, the kelch repeat domain of human KLHDC2 (amino acids 22–362) was subcloned into the pET vector with an N-terminally fused His-elongation factor Ts (TSF) and a TEV-cleavage site. The His-TSF-KLHDC2 protein was overexpressed and purified from BL21 (DE3) E. coli cells. Bacterial cells transformed with the pET-based expression plasmid were grown in LB broth to an OD600 of 0.8–1 and induced with 0.5 mM IPTG. Cells were harvested, re-suspended, and lysed in lysis buffer (20 mM Tris, pH 8.0, 200 mM NaCl, 20 mM imidazole) in the presence of protease inhibitors (1 μg mL–1 leupeptin, 1 μg mL–1 pepstatin and 100 μM phenylmethylsulfonyl fluoride) using a microfluidizer. The His-TSF-KLHDC2 protein was isolated from the soluble cell lysate by HisPurTM Ni-NTA Superflow Agarose (Thermo Fisher Scientific, Waltham, Massachusetts). After TEV cleavage of the His-TSF, KLHDC2 was further purified by Mono Q™ 5/50 GL (GE Healthcare, Chicago, Illinois). The NaCl eluates were subjected to Superdex-200 size-exclusion chromatography (GE Healthcare). Native mass spectrometry was used to confirm KLHDC2 in its apo form. The samples were concentrated by ultrafiltration to 10–22 mg mL−1. All samples were flash-frozen in liquid nitrogen for storage prior to use.
AlphaLISA assays for determining and measuring protein-protein interactions were performed using an EnSpire reader (PerkinElmer). GST-tagged KLHDC2 was attached to anti-GST AlphaLISA acceptor beads. Synthetic N-terminal biotinylated 12 aa SelK degron peptide ([Biotin]HLRGSPPPMAGG[C) (Bio-Synthesis, Inc.) was immobilized to streptavidin-coated AlphaLISA donor beads. The donor and acceptor beads were brought into proximity by the interactions between the SelK peptide and KLHDC2. Excitation of the donor beads by a laser beam of 680 nm promotes the formation of singlet oxygen. When an acceptor bead is in close proximity, the singlet oxygen reacts with thioxene derivatives in the acceptor beads and causes the emission of 615 nm photons, which are detected as the binding signal. […]

[1] = molecular target: T2, GST-tagged kelch repeat domain of human …; experiment: AlphaScreen or HTRF; AlphaLISA competition assay: GST-KLHDC2 (3.83 nM) on anti-GST acceptor beads, biotinylated SelK peptide (5.55 nM) on streptavidin donor beads; 25 mM HEPES pH 7.5, 100 mM NaCl, 1 mM TCEP, 0.1% Tween-20, 0.05 mg/ml BSA; small-molecule competitors 15 nM to 1.5 mM; settings: both partners purified

Row | Molecule | IC50 (KLHDC2) | other results
1 | CC(C)=CCOc1ccc(CCC(C)NCC(O)CCC2CC2)cc1 (stereo not shown) [Compound Z8739905023, CC(CCC=1C=CC(OCC=C(C)C)=CC1)NCC(O)CCC2CC2] | – | IC50 (hNaV1.7 channel): 2.3 µM
2 | O=C(O)Cn1cc(CNC(=O)c2ccccc2SCC2CCCO2)nn1 (stereo not shown) [Compound C2.16] | 3.3 µM | –
3 | CC1(C)CCCC(CC(=O)NC(C)(C)CNC(=O)c2ccnnc2S)C1 (stereo not shown) [Compound C6] | 124 µM | –
4 | CC(NC(=O)CSCc1nc2ccccc2s1)c1cn(CC(=O)O)nn1 (stereo not shown) [Compound C2.20] | 4.1 µM | –
5 | CC(=CC(=O)N1CCN(C(=O)Cc2cnc3ncccn23)C2CC21)C(C)C (stereo not shown) [Compound C1] | 488 µM | –
6 | C=CCN(Cc1cn(CC(=O)O)nn1)C(=O)CCSCc1ccccc1 [Compound C2.19] | 3.4 µM | –
7 | Cc1cc(C)c(C(=O)NCC(=O)NCc2cn(CC(=O)O)nn2)s1 [Compound C2.8] | 1.1 µM | –
8 | Cc1cc(C(=O)NCCCn2cnnn2)c(C)n1Cc1ccccc1 [Compound C17] | 121 µM | –
9 | COc1ccc(CN(C)C(=O)COC(=O)Cn2ccnn2)cc1OC [Compound C18] | 377 µM | –
10 | C[C@H]1CN(C(=O)C(OC(C)(C)C)C(C)(C)C)C[C@H]1NC(=O)CCn1ccnn1 (stereo partly shown) [Compound C4] | 2070 µM | –
11 | CN(Cc1cn(CC(=O)O)nn1)C(=O)CCCSc1ccc(Cl)cc1 [Compound C2.4] | 10 µM | –
12 | C=CCN(Cc1cn(CC(=O)O)nn1)C(=O)CSc1cc(C)ccc1C [Compound C2.6] | 6.2 µM | –
13 | B1 | – | binding result [1]: binds

From PMC11377542, “An artificial intelligence accelerated virtual screening platform for drug discovery” (Nature Communications, 2024)
